Like-named read-outs stand apart in the source and are kept apart here. Marks after values point to notes of the source that are not given here.
Columns and labels:
[1] = parameters: species or system human; settings: pooled urine of children aged 3-6; tentative, exact mass match
[2] = for Depletion rate, slope, first-order kinetics / Depletion rate, slope, zero-order kinetics: linear regression
[3] = for % Depletion: after 60 min (Eq. 1); for Percentage of Initial Parent Administration (Mean ± Std Dev): Total: parents plus quantified metabolites; for Initial parent mass unaccounted for after quantifying suspected metabolites: metabolites with authentic standards available
[4] = 2 μM; herring gull liver microsomes; cited from earlier work
[5] = cited from earlier work
[6] = human liver microsomes; cited from earlier work
[7] = polar bear liver microsomes; cited from earlier work
[8] = gavage of a technical mixture containing 35% 2IPPDPP; cited from earlier work
[9] = 1 μM, s9 & sulfatase & glucuronidase
[10] = 10 μM, s9 & sulfatase & glucuronidase

| Compound | Depletion rate, slope, first-order kinetics ([2]; 1 μM dose) | Depletion rate, slope, zero-order kinetics ([2]; 1 μM dose) | Depletion rate, slope, first-order kinetics ([2]; 10 μM dose) | Depletion rate, slope, zero-order kinetics ([2]; 10 μM dose) [nmol/min/mg protein] | Percentage of Initial Parent Administration (Mean ± Std Dev): parent compound ([3]; 1 μM, Abiotic Control) [%] | % Depletion ([3]; 1 μM, Abiotic Control) [%] | Percentage of Initial Parent Administration (Mean ± Std Dev): parent compound ([3]; 1 μM, Heat-inactivated s9) [%] | % Depletion ([3]; 1 μM, Heat-inactivated s9) [%] | Percentage of Initial Parent Administration (Mean ± Std Dev): parent compound ([3]; 1 μM, s9) [%] | Percentage of Initial Parent Administration (Mean ± Std Dev): parent compound ([3]; 1 μM, s9 & glucuronidase) [%] | % Depletion ([3]; 1 μM, s9 & glucuronidase) [%] | Percentage of Initial Parent Administration (Mean ± Std Dev): parent compound ([3]; 1 μM, s9 & sulfatase) [%] | % Depletion ([3]; 1 μM, s9 & sulfatase) [%] | % Depletion ([3]; 1 μM, s9) [%] | Percentage of Initial Parent Administration (Mean ± Std Dev): parent compound ([3]; 1 μM, unprocessed spike) [%] | Percentage of Initial Parent Administration (Mean ± Std Dev): Total ([3]; 1 μM, unprocessed spike) [%] | Percentage of Initial Parent Administration (Mean ± Std Dev): parent compound ([3]; 10 μM, Abiotic Control) [%] | % Depletion ([3]; 10 μM, Abiotic Control) [%] | Percentage of Initial Parent Administration (Mean ± Std Dev): parent compound ([3]; 10 μM, Heat-inactivated s9) [%] | % Depletion ([3]; 10 μM, Heat-inactivated s9) [%] | other results |
| --- | --- | --- | --- | --- | --- | --- | --- | --- | --- | --- | --- | --- | --- | --- | --- | --- | --- | --- | --- | --- | --- |
| mono-isopropenylphenyl diphenyl phosphate | – | – | – | – | – | – | – | – | – | – | – | – | – | – | – | – | – | – | – | – | Detection in human urine samples (number of samples out of 9) [1]: 1 |
| CC(C)c1ccc(OP(=O)(Oc2ccccc2)Oc2ccccc2)cc1 [4IPPDPP, 4-isopropylphenyl diphenyl phosphate] | −0.015 ln[nmol]/min/mg protein | −0.042 nmol/min/mg protein | −0.0034 ln[nmol]/min/mg protein | −0.097 | 108 ± 23 | 0 | 82 ± 5 | 18 | 27 ± 4 | 27 ± 1 | 73 | 29 ± 3 | 71 | 73 | 100 ± 2 | 100 ± 13 | 94 ± 6 | 6 | 97 ± 10 | 3 | Percentage of Initial Parent Administration (Mean ± Std Dev): parent compound [3, 9]: 32 ± 3%; % Depletion [3, 9]: 68%; Percentage of Initial Parent Administration (Mean ± Std Dev): parent compound ([3]; 10 μM, s9): 55 ± 3%; Percentage of Initial Parent Administration (Mean ± Std Dev): parent compound ([3]; 10 μM, s9 & glucuronidase): 57 ± 2%; % Depletion ([3]; 10 μM, s9 & glucuronidase): 43%; Percentage of Initial Parent Administration (Mean ± Std Dev): parent compound ([3]; 10 μM, s9 & sulfatase): 54 ± 1%; Percentage of Initial Parent Administration (Mean ± Std Dev): parent compound [3, 10]: 55 ± 4%; % Depletion [3, 10]: 45%; % Depletion ([3]; 10 μM, s9 & sulfatase): 46%; % Depletion ([3]; 10 μM, s9): 45%; Percentage of Initial Parent Administration (Mean ± Std Dev): parent compound ([3]; 10 μM, unprocessed spike): 100 ± 3%; Initial parent mass unaccounted for after quantifying suspected metabolites [3]: approximately 20% |
| O=P(Oc1ccccc1)(Oc1ccccc1)Oc1ccccc1 [TPHP, triphenyl phosphate, reference compound] | −0.032 ^* ln[nmol]/min/mg protein | −0.024 nmol/min/mg protein | −0.0030 ln[nmol]/min/mg protein | −0.032 | 94 ± 7 | 6 | 88 ± 2 | 12 | 31 ± 2 | 31 ± 3 | 69 | 23 ± 1 | 77 | 69 | 100 ± 5 | 100 ± 5 | 95 ± 1 | 5 | 94 ± 1 | 6 | Depletion rate ([2]; 1 μM dose): 24 pmol/min/mg; Mass of parent lower in the +S9 treatment compared to the unprocessed spike ([3]; 1 μM): 69–77%; Mass of parent lower in the +S9 treatment compared to the unprocessed spike ([3]; 10 μM): 32–37%; Percentage of Initial Parent Administration (Mean ± Std Dev): parent compound ([3]; 10 μM, s9): 68 ± 1%; Percentage of Initial Parent Administration (Mean ± Std Dev): parent compound ([3]; 10 μM, s9 & glucuronidase): 67 ± 1%; % Depletion ([3]; 10 μM, s9 & glucuronidase): 33%; Percentage of Initial Parent Administration (Mean ± Std Dev): parent compound ([3]; 10 μM, s9 & sulfatase): 63 ± 0.2%; % Depletion ([3]; 10 μM, s9 & sulfatase): 37%; % Depletion ([3]; 10 μM, s9): 32%; Percentage of Initial Parent Administration (Mean ± Std Dev): parent compound ([3]; 10 μM, unprocessed spike): 100 ± 1%; Initial parent depleted in the abiotic control group ([3]; both doses): 5–6%; Depletion rate [4]: 22 pmol/min/mg; OH-TPHP glucuronide conjugates, share of the initial TPHP treatment [5]: 65%; Percentage of DPHP formation following incubation [6]: 22%; Percentage of DPHP formation following incubation [7]: 97% |
| CC(C)c1ccccc1OP(=O)(Oc1ccccc1)Oc1ccccc1 [2IPPDPP, 2-isopropylphenyl diphenyl phosphate] | −0.010 ln[nmol]/min/mg protein | −0.013 ^* nmol/min/mg protein | −0.0048 ln[nmol]/min/mg protein | −0.092 | 105 ± 20 | 0 | 101 ± 8 | 0 | 56 ± 10 | 65 ± 3 | 35 | 64 ± 6 | 36 | 44 | 100 ± 13 | 100 ± 13 | 103 ± 10 | 0 | 103 ± 11 | 0 | Percentage of Initial Parent Administration (Mean ± Std Dev): parent compound [3, 9]: 67 ± 4%; % Depletion [3, 9]: 33%; Percentage of Initial Parent Administration (Mean ± Std Dev): parent compound ([3]; 10 μM, s9): 77 ± 5%; Percentage of Initial Parent Administration (Mean ± Std Dev): parent compound ([3]; 10 μM, s9 & glucuronidase): 82 ± 3%; % Depletion ([3]; 10 μM, s9 & glucuronidase): 18%; Percentage of Initial Parent Administration (Mean ± Std Dev): parent compound [3, 10]: 84 ± 4%; % Depletion [3, 10]: 16%; % Depletion ([3]; 10 μM, s9 & sulfatase): 20%; % Depletion ([3]; 10 μM, s9): 23%; Percentage of Initial Parent Administration (Mean ± Std Dev): parent compound ([3]; 10 μM, unprocessed spike): 100 ± 9%; Initial parent mass unaccounted for after quantifying suspected metabolites [3]: approximately 20% |
| 2-phenyl-4H,−4,4-dimethyl-1,1,3,2 -benzodioxapho-sphoran-2-oxide | – | – | – | – | – | – | – | – | – | – | – | – | – | – | – | – | – | – | – | – | Detection in human urine samples (number of samples out of 9) [1]: 1; Detection in rabbit bile [8]: detected |
